Legend:
Assay in all cases: relative viability (nuclei count vs DMSO), 5 days (fraction); higher = more cells survive
NCI-H596 = test system: NCI-H596
Summary of the method: (§1)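 After 5 days of treatment, lung cancer cells in 1536-well plates were fixed and stained in a single step (final 0.05% Triton X-100, 1% formaldehyde, 1 ug/ml Hoechst) and their nuclei counted on 4× images. Treatment had been applied by pin tool the day after seeding as one drug alone or as a fixed anchor-drug dose with five library-drug doses (not always all listed) in √10 steps. Relative viability is the nuclei count of treated wells divided by that of vehicle wells, and values are medians of duplicate plates.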

NCI-H322M = test system: NCI-H322M
Summary of the method: as §1

NCI-H1651 = test system: NCI-H1651
Summary of the method: as §1

NCI-H661 = test system: NCI-H661
Summary of the method: as §1

LU99A = test system: LU99A
Summary of the method: as §1

LCLC-97TM1 = test system: LCLC-97TM1
Summary of the method: as §1

LXF-289 = test system: LXF-289
Summary of the method: as §1

BEN = test system: BEN
Summary of the method: as §1

LC-2-ad = test system: LC-2-ad
Summary of the method: as §1

NCI-H1666 = test system: NCI-H1666
Summary of the method: as §1

NCI-H1944 = test system: NCI-H1944
Summary of the method: as §1

NCI-H2342 = test system: NCI-H2342
Summary of the method: as §1

NCI-H358 = test system: NCI-H358
Summary of the method: as §1

HCC-15 = test system: HCC-15
Summary of the method: as §1

NCI-H838 = test system: NCI-H838
Summary of the method: as §1

HCC-78 = test system: HCC-78
Summary of the method: as §1

LK-2 = test system: LK-2
Summary of the method: as §1

SK-MES-1 = test system: SK-MES-1
Summary of the method: as §1

ChaGo-K-1 = test system: ChaGo-K-1
Summary of the method: as §1

PC-3 [JPC-3] = test system: PC-3 [JPC-3]
Summary of the method: as §1

NCI-H2087 = test system: NCI-H2087
Summary of the method: as §1

NCI-H650 = test system: NCI-H650
Summary of the method: as §1

UMC-11 = test system: UMC-11
Summary of the method: as §1

## O=C(O)c1ccc(-c2c[nH]c3ncc(-c4ccccc4)cc23)cc1C1CCCC1 + O=C(CCCCCCC(=O)Nc1ccccc1)NO [Vorinostat] (partner 1 µM)
NCI-H596; first compound 0.04 µM
  relative viability: 0.499
NCI-H596; first compound 0.1265 µM
  relative viability: 0.657
NCI-H596; first compound 0.4 µM
  relative viability: 0.583
NCI-H596; first compound 1.265 µM
  relative viability: 0.571
NCI-H322M; first compound 0.04 µM
  relative viability: 0.909
NCI-H322M; first compound 0.1265 µM
  relative viability: 0.858
NCI-H322M; first compound 0.4 µM
  relative viability: 0.898
NCI-H322M; first compound 1.265 µM
  relative viability: 0.855
NCI-H1651; first compound 0.04 µM
  relative viability: 0.349
NCI-H1651; first compound 0.1265 µM
  relative viability: 0.596
NCI-H1651; first compound 0.4 µM
  relative viability: 0.62
NCI-H1651; first compound 1.265 µM
  relative viability: 0.462
NCI-H661; first compound 0.04 µM
  relative viability: 0.766
NCI-H661; first compound 0.1265 µM
  relative viability: 0.763
NCI-H661; first compound 0.4 µM
  relative viability: 0.787
NCI-H661; first compound 1.265 µM
  relative viability: 0.787
LU99A; first compound 0.04 µM
  relative viability: 0.583
LU99A; first compound 0.1265 µM
  relative viability: 0.46
LU99A; first compound 0.4 µM
  relative viability: 0.469
LU99A; first compound 1.265 µM
  relative viability: 0.421
LCLC-97TM1; first compound 0.04 µM
  relative viability: 0.876
LCLC-97TM1; first compound 0.1265 µM
  relative viability: 0.94
LCLC-97TM1; first compound 0.4 µM
  relative viability: 0.747
LCLC-97TM1; first compound 1.265 µM
  relative viability: 0.525
LXF-289; first compound 0.04 µM
  relative viability: 0.769
LXF-289; first compound 0.1265 µM
  relative viability: 0.773
LXF-289; first compound 0.4 µM
  relative viability: 0.632
LXF-289; first compound 1.265 µM
  relative viability: 0.398
BEN; first compound 0.04 µM
  relative viability: 0.507
BEN; first compound 0.1265 µM
  relative viability: 0.614
BEN; first compound 0.4 µM
  relative viability: 0.475
BEN; first compound 1.265 µM
  relative viability: 0.505
LC-2-ad; first compound 0.04 µM
  relative viability: 0.692
LC-2-ad; first compound 0.1265 µM
  relative viability: 0.696
LC-2-ad; first compound 0.4 µM
  relative viability: 0.668
LC-2-ad; first compound 1.265 µM
  relative viability: 0.454
NCI-H1666; first compound 0.04 µM
  relative viability: 1.04
NCI-H1666; first compound 0.1265 µM
  relative viability: 1.02
NCI-H1666; first compound 0.4 µM
  relative viability: 1.08
NCI-H1666; first compound 1.265 µM
  relative viability: 0.737
NCI-H1944; first compound 0.04 µM
  relative viability: 0.53
NCI-H1944; first compound 0.1265 µM
  relative viability: 0.573
NCI-H1944; first compound 0.4 µM
  relative viability: 0.582
NCI-H1944; first compound 1.265 µM
  relative viability: 0.465
NCI-H2342; first compound 0.04 µM
  relative viability: 0.783
NCI-H2342; first compound 0.1265 µM
  relative viability: 0.762
NCI-H2342; first compound 0.4 µM
  relative viability: 0.818
NCI-H2342; first compound 1.265 µM
  relative viability: 0.874
NCI-H358; first compound 0.04 µM
  relative viability: 0.574
NCI-H358; first compound 0.1265 µM
  relative viability: 0.795
NCI-H358; first compound 0.4 µM
  relative viability: 0.536
NCI-H358; first compound 1.265 µM
  relative viability: 0.229
HCC-15; first compound 0.04 µM
  relative viability: 0.848
HCC-15; first compound 0.1265 µM
  relative viability: 0.872
HCC-15; first compound 0.4 µM
  relative viability: 0.834
HCC-15; first compound 1.265 µM
  relative viability: 0.59
NCI-H838; first compound 0.04 µM
  relative viability: 0.68
NCI-H838; first compound 0.1265 µM
  relative viability: 0.773
NCI-H838; first compound 0.4 µM
  relative viability: 0.771
NCI-H838; first compound 1.265 µM
  relative viability: 0.544
HCC-78; first compound 0.1265 µM
  relative viability: 0.451
HCC-78; first compound 0.4 µM
  relative viability: 0.441
HCC-78; first compound 1.265 µM
  relative viability: 0.448
LK-2; first compound 0.04 µM
  relative viability: 0.333
LK-2; first compound 0.1265 µM
  relative viability: 0.311
LK-2; first compound 0.4 µM
  relative viability: 0.385
LK-2; first compound 1.265 µM
  relative viability: 0.199
SK-MES-1; first compound 0.04 µM
  relative viability: 1.13
SK-MES-1; first compound 0.1265 µM
  relative viability: 1.19
SK-MES-1; first compound 0.4 µM
  relative viability: 1.27
SK-MES-1; first compound 1.265 µM
  relative viability: 0.876
ChaGo-K-1; first compound 0.04 µM
  relative viability: 0.739
ChaGo-K-1; first compound 0.1265 µM
  relative viability: 0.786
ChaGo-K-1; first compound 0.4 µM
  relative viability: 0.772
ChaGo-K-1; first compound 1.265 µM
  relative viability: 0.686
PC-3 [JPC-3]; first compound 0.04 µM
  relative viability: 0.803
PC-3 [JPC-3]; first compound 0.1265 µM
  relative viability: 0.836
PC-3 [JPC-3]; first compound 0.4 µM
  relative viability: 0.787
PC-3 [JPC-3]; first compound 1.265 µM
  relative viability: 0.667
NCI-H2087; first compound 0.04 µM
  relative viability: 0.916
NCI-H2087; first compound 0.1265 µM
  relative viability: 0.924
NCI-H2087; first compound 0.4 µM
  relative viability: 0.611
NCI-H2087; first compound 1.265 µM
  relative viability: 0.465
NCI-H650; first compound 0.04 µM
  relative viability: 0.48
NCI-H650; first compound 0.1265 µM
  relative viability: 0.394
NCI-H650; first compound 0.4 µM
  relative viability: 0.413
NCI-H650; first compound 1.265 µM
  relative viability: 0.22
UMC-11; first compound 0.04 µM
  relative viability: 0.419
UMC-11; first compound 0.1265 µM
  relative viability: 0.321
UMC-11; first compound 0.4 µM
  relative viability: 0.347
UMC-11; first compound 1.265 µM
  relative viability: 0.219

Reference: the supplement of paper PMC10307832
